The text below walks through data of US10330685B2, “Markers for sepsis treatment” (priority 2014, dated 2019).

For data set [1], the system named is sepsis patients. Briefly: Phase I clinical trial of L-carnitine treatment for sepsis: survival. Format: in vivo, human. Here is the method: (§1) These and other features, aspects, and advantages of the present technology will become better understood with regard to the following drawings, which represent the analysis of patients enrolled in a phase I study of L-carnitine in septic shock (see, e.g., Puskarich et al. J Parenter Enteral Nutr 38(6): 736-743, incorporated herein by reference in its entirety). From this study, serum samples collected from carnitine-treated (n=16) and placebo-treated (n=14) patients were assayed by ^1H-nuclear magnetic resonance (NMR) and the resulting spectra were used to identify and quantify metabolites; a total of 38 metabolites were identified in each sample:
Serum samples were collected from patients enrolled in a previously published double-blind randomized phase I clinical trial of L-carnitine treatment for sepsis (see, e.g., Puskarich et al., J Parenter Enteral Nutr 38(6): 736-743, incorporated herein by reference in its entirety). From this study, serum samples collected from carnitine-treated (n=16) and placebo-treated (n=15) patients were assayed by ^1H-nuclear magnetic resonance (NMR) and the resulting spectra were used to identify and quantify metabolites; a total of 38 metabolites were identified in each sample.
Serum was assayed prior to (T0) and following (T24, T48) treatment with a single 12-g dose of LC or placebo. […]

Data set [2] concerns septic shock. Particulars: septic shock patients; cited from earlier work.
Data set [3] can be described thus: Serum metabolites by 1H-NMR before and 24 h and 48 h after L-carnitine treatment. It counts as in vivo, human. Here is the method: as §1
Serum samples were collected from patients enrolled in a previously published double-blind randomized phase I clinical trial of L-carnitine treatment for sepsis (see, e.g., Puskarich et al., J Parenter Enteral Nutr 38(6): 736-743, incorporated herein by reference in its entirety). From this study, serum samples collected from carnitine-treated (n=16) and placebo-treated (n=15) patients were assayed by ^1H-nuclear magnetic resonance (NMR) and the resulting spectra were used to identify and quantify metabolites; a total of 38 metabolites were identified in each sample. […]
The levels of these metabolites were also measured in samples acquired at 24 hours and 48 hours after treatment with L-carnitine. […]

Molecules are shown by their SMILES.

In the case of `C[N+](C)(C)C[C@H](O)CC(=O)[O-]` [L-carnitine], the mortality rate entry in data set [1] ("high" ketone sepsis patients treated with LC compared with "low" ketone patients) is “higher mortality rate”. In addition, the survival entry in data set [1] (patients with "low" amounts of ketone prior to L-carnitine treatment vs patients with "high" amounts) is “significantly better survival”. Moreover, in data set [2], the “hemodynamic parameters (right atrial pressure, mean arterial pressure, arterial oxygenation)” value was “improvements”. Moreover, the “carnitine levels at 24 hours” value in data set [3] (in vivo) is given as “higher carnitine levels”. Also, the citrate levels result in data set [3] (serum, LC-treated patients, following a profound decline) is “increased”.
